Laboratory results from ChEMBL document CHEMBL4270518 (Eur J Med Chem, 2018).
One block for each molecule: values may come before it. Active and inactive are the calls of the source. No cut-off for these calls is given here.

Key:
[1] = target: T1, Protein deacetylase HDAC6 (Homo sapiens, UniProt Q9UBN7); assay: Inhibition of human recombinant HDAC6 using RHKKAcAMC as substrate by fluorescence assay
T1 sequence (Q9UBN7 whole entry): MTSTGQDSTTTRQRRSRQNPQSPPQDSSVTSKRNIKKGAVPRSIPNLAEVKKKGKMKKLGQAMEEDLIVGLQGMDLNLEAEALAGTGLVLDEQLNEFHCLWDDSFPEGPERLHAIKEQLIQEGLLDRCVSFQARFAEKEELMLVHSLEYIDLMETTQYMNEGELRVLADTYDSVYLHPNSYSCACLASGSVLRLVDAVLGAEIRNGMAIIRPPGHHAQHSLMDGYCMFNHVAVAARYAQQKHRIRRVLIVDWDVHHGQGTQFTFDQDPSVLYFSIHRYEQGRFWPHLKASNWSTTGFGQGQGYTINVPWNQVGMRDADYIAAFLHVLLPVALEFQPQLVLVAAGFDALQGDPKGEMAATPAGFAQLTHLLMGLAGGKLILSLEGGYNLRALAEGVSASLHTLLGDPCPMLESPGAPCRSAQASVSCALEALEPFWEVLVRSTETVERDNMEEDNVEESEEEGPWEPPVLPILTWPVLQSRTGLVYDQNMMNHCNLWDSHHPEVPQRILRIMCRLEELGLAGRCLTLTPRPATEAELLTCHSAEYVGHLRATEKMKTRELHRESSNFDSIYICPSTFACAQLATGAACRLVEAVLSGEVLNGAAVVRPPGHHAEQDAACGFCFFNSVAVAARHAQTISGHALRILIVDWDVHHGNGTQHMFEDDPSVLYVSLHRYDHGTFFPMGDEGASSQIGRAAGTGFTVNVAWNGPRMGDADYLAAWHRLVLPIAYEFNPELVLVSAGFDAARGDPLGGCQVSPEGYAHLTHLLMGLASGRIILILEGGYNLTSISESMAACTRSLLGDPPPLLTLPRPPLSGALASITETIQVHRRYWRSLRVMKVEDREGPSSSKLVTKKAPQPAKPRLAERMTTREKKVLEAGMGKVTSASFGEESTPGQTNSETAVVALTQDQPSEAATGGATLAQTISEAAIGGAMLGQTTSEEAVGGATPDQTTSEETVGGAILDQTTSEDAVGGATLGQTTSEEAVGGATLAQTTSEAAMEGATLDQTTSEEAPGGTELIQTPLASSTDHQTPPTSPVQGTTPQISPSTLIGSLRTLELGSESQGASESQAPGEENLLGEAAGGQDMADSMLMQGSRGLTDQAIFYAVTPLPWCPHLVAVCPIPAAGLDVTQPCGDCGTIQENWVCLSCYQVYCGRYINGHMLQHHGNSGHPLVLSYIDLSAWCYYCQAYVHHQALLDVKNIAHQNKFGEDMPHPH

MV4-11 [2] = assay: Inhibition of class 1 HDAC in human MV4-11 cells assessed as hyperacetylation of histone H3 at 200 nM after 24 hrs by Western blot analysis; type: cell-based
MV4-11 [3] = assay: Induction of apoptosis in human MV4-11 cells at 30 nM after 24 to 48 hrs by Annexin V-PI staining based flow cytometry; type: functional, cell-based
MV4-11 [4] = assay: Induction of apoptosis in human MV4-11 cells at 5 uM after 24 to 48 hrs by Annexin V-PI staining based flow cytometry; type: functional, cell-based
[5] = target: T2, Protein deacetylase HDAC6 (Homo sapiens) (UniProt Q9UBN7); assay: Inhibition of HDAC6 in human MV4-11 cells assessed as accumulation of acetylated alpha-tubulin at 200 nM by Western blot analysis; type: cell-based; details: TDE = time-dependent effect
T2 sequence (whole entry): T1 sequence (Q9UBN7 whole entry)

Homo sapiens [6] = species on record: Homo sapiens; assay: Selectivity ratio of IC50 for human recombinant HDAC2 to IC50 for human recombinant HDAC6
Homo sapiens [7] = species on record: Homo sapiens; assay: Selectivity ratio of IC50 for human recombinant HDAC8 to IC50 for human recombinant HDAC6
Histone deacetylase 8 = target: T3, Histone deacetylase 8 (Homo sapiens, UniProt Q9BY41); assay: Inhibition of human recombinant HDAC8 using RHKAcKAcAMC as substrate by fluorescence assay
T3 sequence (Q9BY41 whole entry): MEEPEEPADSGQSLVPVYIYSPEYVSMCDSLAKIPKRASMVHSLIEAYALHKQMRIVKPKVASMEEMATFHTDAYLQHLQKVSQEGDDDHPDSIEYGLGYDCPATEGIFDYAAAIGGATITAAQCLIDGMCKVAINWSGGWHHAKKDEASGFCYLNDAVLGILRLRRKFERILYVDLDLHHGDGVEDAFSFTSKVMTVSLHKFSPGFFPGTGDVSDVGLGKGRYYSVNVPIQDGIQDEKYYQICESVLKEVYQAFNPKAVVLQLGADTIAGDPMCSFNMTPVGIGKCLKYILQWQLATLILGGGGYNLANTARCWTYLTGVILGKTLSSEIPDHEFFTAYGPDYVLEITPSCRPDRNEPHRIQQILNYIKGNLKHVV

[8] = target: T4, Polyamine deacetylase HDAC10 (Homo sapiens, UniProt Q969S8); assay: Inhibition of human recombinant HDAC10 using RHKKAcAMC as substrate by fluorescence assay
T4 sequence (Q969S8 whole entry): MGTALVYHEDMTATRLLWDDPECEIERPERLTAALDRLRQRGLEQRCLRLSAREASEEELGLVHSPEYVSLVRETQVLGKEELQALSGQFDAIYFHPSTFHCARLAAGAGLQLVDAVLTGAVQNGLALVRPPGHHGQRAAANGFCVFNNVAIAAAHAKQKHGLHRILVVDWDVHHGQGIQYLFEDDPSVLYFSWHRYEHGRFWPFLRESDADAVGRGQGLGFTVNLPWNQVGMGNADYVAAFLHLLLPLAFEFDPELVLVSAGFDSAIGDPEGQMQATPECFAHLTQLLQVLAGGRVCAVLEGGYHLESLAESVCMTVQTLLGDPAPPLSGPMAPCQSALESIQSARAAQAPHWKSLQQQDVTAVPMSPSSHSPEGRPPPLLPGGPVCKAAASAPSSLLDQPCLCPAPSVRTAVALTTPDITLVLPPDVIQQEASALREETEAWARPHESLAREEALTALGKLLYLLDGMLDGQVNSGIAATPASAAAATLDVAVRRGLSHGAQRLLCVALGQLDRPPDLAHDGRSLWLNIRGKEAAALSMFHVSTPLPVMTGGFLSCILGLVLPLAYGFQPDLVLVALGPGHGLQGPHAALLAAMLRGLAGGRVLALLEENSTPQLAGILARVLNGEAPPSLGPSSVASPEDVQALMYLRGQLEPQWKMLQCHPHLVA

Homo sapiens [9] = species on record: Homo sapiens; assay: Selectivity ratio of IC50 for human recombinant HDAC1 to IC50 for human recombinant HDAC6
[10] = target: T2, Protein deacetylase HDAC6 (Homo sapiens); assay: Inhibition of HDAC6 in human MV4-11 cells assessed as accumulation of acetylated alpha-tubulin at 50 nM after 24 hrs by Western blot analysis; type: cell-based
MV4-11 [11] = assay: Cell cycle arrest in human MV4-11 cells up to 1 uM after 24 to 48 hrs by propidium iodide staining based flow cytometry; type: functional
Histone deacetylase 4 = Histone deacetylase 4 (Homo sapiens, UniProt P56524); assay: Inhibition of human recombinant HDAC4 using fluorogenic trifluoroacetyl lysine as substrate by fluorescence assay
MV4-11 [12] = assay: Inhibition of class 1 HDAC in human MV4-11 cells assessed as hyperacetylation of histone H3 at higher concentration after 24 hrs by Western blot analysis; type: cell-based
[13] = target: T2, Protein deacetylase HDAC6 (Homo sapiens); assay: Inhibition of HDAC6 in human MV4-11 cells assessed as accumulation of acetylated alpha-tubulin at 200 nM after 10 to 1440 mins by Western blot analysis; type: cell-based
Histone deacetylase 2 = Histone deacetylase 2 (Homo sapiens, UniProt Q92769); assay: Inhibition of human recombinant HDAC2 using RHKKAcAMC as substrate by fluorescence assay
MV4-11 [14] = assay: Induction of apoptosis in human MV4-11 cells up to 1 uM after 24 to 48 hrs by Annexin V-PI staining based flow cytometry; type: functional, cell-based
Homo sapiens [15] = species on record: Homo sapiens; assay: Selectivity ratio of IC50 for human recombinant HDAC4 to IC50 for human recombinant HDAC6
Histone deacetylase 1 = Histone deacetylase 1 (Homo sapiens, UniProt Q13547); assay: Inhibition of human recombinant HDAC1 using RHKKAcAMC as substrate by fluorescence assay
Chain of Histone deacetylase 1 (Q13547 whole entry): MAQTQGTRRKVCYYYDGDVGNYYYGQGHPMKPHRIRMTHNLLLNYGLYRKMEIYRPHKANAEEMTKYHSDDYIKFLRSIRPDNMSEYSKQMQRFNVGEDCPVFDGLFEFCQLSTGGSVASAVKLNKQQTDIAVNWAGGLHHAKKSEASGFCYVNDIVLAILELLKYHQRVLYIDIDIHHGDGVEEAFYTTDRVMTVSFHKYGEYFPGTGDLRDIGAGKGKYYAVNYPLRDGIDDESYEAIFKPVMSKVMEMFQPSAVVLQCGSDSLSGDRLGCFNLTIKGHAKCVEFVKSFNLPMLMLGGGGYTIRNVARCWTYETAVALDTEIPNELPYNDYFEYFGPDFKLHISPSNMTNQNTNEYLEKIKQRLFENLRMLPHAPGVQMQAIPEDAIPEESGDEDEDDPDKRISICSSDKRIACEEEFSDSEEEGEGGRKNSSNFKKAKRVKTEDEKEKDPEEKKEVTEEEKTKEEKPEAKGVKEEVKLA

Chain of Histone deacetylase 2 (Q92769 whole entry): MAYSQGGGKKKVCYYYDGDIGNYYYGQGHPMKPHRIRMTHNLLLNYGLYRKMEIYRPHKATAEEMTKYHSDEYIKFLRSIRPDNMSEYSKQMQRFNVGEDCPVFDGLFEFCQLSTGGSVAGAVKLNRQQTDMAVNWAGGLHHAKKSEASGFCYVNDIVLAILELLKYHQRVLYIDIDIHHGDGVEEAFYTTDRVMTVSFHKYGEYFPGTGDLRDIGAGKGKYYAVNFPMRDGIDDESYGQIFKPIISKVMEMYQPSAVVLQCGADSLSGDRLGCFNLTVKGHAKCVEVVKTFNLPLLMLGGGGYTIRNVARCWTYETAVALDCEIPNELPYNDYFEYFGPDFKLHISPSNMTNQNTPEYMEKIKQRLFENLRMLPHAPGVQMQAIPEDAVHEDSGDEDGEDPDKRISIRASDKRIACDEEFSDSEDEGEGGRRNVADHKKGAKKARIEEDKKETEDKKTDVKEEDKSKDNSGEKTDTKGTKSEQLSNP
Chain of Histone deacetylase 4 (P56524 whole entry): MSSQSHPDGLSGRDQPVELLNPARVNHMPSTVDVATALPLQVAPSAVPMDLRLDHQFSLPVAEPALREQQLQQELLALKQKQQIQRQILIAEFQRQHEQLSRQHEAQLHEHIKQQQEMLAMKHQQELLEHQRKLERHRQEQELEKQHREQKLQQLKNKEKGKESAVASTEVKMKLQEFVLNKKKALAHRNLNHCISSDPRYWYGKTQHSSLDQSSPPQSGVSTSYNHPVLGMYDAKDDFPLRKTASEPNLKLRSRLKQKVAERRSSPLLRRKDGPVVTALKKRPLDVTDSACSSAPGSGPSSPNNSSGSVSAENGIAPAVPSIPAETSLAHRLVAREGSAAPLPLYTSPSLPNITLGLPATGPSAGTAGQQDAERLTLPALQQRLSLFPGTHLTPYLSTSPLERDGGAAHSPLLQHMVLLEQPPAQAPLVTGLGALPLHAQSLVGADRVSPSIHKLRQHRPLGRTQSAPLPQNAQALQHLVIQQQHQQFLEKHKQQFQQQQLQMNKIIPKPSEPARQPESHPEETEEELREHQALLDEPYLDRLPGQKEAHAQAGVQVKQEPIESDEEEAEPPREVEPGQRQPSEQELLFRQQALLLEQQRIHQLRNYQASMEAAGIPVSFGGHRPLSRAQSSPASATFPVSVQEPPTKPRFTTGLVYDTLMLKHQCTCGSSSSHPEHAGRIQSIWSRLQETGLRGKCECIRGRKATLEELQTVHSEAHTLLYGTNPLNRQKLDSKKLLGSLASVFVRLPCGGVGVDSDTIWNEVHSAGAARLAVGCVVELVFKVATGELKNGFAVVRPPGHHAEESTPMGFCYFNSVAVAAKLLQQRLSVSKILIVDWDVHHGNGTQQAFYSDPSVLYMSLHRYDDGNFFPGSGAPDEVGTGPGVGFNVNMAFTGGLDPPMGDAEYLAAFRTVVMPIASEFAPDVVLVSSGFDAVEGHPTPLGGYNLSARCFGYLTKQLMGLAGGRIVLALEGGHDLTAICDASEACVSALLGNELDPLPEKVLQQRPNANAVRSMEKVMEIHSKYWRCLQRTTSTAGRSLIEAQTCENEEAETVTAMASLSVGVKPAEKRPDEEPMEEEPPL

SMILES: CCCN1CC(=O)N2[C@H](C)c3c(c4ccccc4n3Cc3ccc(C(=O)NO)cc3)C[C@H]2C1=O
IC50 [1]: 60.7 nM

SMILES: Cc1[nH]c2ccccc2c1CCNCc1ccc(/C=C/C(=O)NO)cc1
Activity (MV4-11 [3]): Active

SMILES: Nc1ccccc1NC(=O)c1ccc(CNC(=O)OCc2cccnc2)cc1
inhibition (MV4-11 [2]): Active | Activity (MV4-11 [4]): Active

SMILES: CCCN1CC(=O)N2[C@@H](Cc3c(n(Cc4ccc(C(=O)NO)cc4)c4ccccc34)[C@@H]2C)C1=O
IC50 [1]: 83.5 nM

SMILES: CCCN1C(=O)C2Cc3c(n(Cc4ccc(C(=O)NO)cc4)c4ccccc34)CN2C1=O (centres undefined)
inhibition (MV4-11 [2]): Active | IC50 [1]: 10.1 nM

SMILES: CCCN1CC(=O)N2Cc3c(c4cc(OCc5ccccc5)ccc4n3Cc3ccc(C(=O)NO)cc3)CC2C1=O (centres undefined)
IC50 [1]: 1.25 nM

SMILES: CCCN1CC(=O)N2[C@H](Cc3c(n(Cc4ccc(C(=O)NO)cc4)c4ccccc34)[C@H]2C)C1=O
IC50 [1]: 18.5 nM

SMILES: CCCCN1CC(=O)N2Cc3c(c4ccccc4n3Cc3ccc(C(=O)NO)cc3)CC2C1=O (centres undefined)
inhibition (MV4-11 [2]): Active | IC50 [1]: 3.26 nM

The remaining molecules from weak to strong by IC50 [1], led by results:

IC50 [1]: 24.1 nM
SMILES: CC(C)CCN1CC(=O)N2Cc3c(c4ccccc4n3Cc3ccc(C(=O)NO)cc3)CC2C1=O (centres undefined)
inhibition (MV4-11 [2]): Active

IC50 [1]: 13.6 nM
SMILES: CN1CC(=O)N2Cc3c(c4ccccc4n3Cc3ccc(C(=O)NO)cc3)CC2C1=O (centres undefined)

IC50 [1]: 9.32 nM
SMILES: CCCCN1C(=O)C2Cc3c(n(Cc4ccc(C(=O)NO)cc4)c4ccccc34)CN2C1=O (centres undefined)

IC50 [1]: 8.03 nM
SMILES: CCN1CC(=O)N2Cc3c(c4ccccc4n3Cc3ccc(C(=O)NO)cc3)CC2C1=O (centres undefined)
inhibition (MV4-11 [2]): Active

IC50 [1]: 4.54 nM
SMILES: CCN1C(=O)C2Cc3c(n(Cc4ccc(C(=O)NO)cc4)c4ccccc34)CN2C1=O (centres undefined)
inhibition (MV4-11 [2]): Active

IC50 [1]: 3.78 nM
SMILES: CC(C)CN1CC(=O)N2Cc3c(c4ccccc4n3Cc3ccc(C(=O)NO)cc3)CC2C1=O (centres undefined)
inhibition (MV4-11 [2]): Active

IC50 [1]: 3.73 nM | inhibition [5]: Tde | Ratio IC50 (Homo sapiens [6]): 900 | Ratio IC50 (Homo sapiens [7]): 200 | IC50 (Histone deacetylase 8): 747 nM | IC50 [8]: 39500 nM | Ratio IC50 (Homo sapiens [9]): 2260 | inhibition [10]: Active | IC50 (Histone deacetylase 4): 20500 nM | inhibition [13]: Active | IC50 (Histone deacetylase 2): 3340 nM | Ratio IC50 (Homo sapiens [15]): 5500 | IC50 (Histone deacetylase 1): 8450 nM
SMILES: CCCN1CC(=O)N2Cc3c(c4ccccc4n3Cc3ccc(C(=O)NO)cc3)CC2C1=O (centres undefined)
inhibition (MV4-11 [2]): Active | Activity (MV4-11 [11]): inactive | inhibition (MV4-11 [12]): Active | Activity (MV4-11 [14]): inactive

IC50 [1]: 2.38 nM
SMILES: CN1C(=O)C2Cc3c(n(Cc4ccc(C(=O)NO)cc4)c4ccccc34)CN2C1=O (centres undefined)

IC50 [1]: 1.8 nM | IC50 (Histone deacetylase 8): 168 nM | IC50 [8]: 1510 nM | IC50 (Histone deacetylase 4): 1440 nM | IC50 (Histone deacetylase 2): 1870 nM | IC50 (Histone deacetylase 1): 1050 nM
SMILES: CCCN1CC(=O)N2[C@H](Cc3c(n(Cc4ccc(C(=O)NO)cc4)c4ccccc34)[C@@H]2C)C1=O
Activity (MV4-11 [11]): inactive | Activity (MV4-11 [14]): inactive

IC50 [1]: 1.66 nM
SMILES: CCCN1CC(=O)N2Cc3c(c4cc(OC)ccc4n3Cc3ccc(C(=O)NO)cc3)CC2C1=O (centres undefined)

IC50 [1]: 0.89 nM
SMILES: CCCN1CC(=O)N2Cc3c(c4cc(O)ccc4n3Cc3ccc(C(=O)NO)cc3)CC2C1=O (centres undefined)
